Reference: patent publication US20160089443A1, “PROTEIN-GRAPHENE NANOCOMPOSITE DRUG CARRIER” (NATIONAL CHIAO TUNG UNIVERSITY, priority 2014, published 2016)
In brackets after ≈: the same amount, converted by molar mass.

Columns and labels:
[1] = tested on: in vivo tumors (RG2 cells); experiment: Relative tumor volume after treatment with NIR irradiation; settings: mice, 24 hours after the treatment
Method: In Experimental example 7, the targeting efficiency of the drug carrier of the present invention was tested by experiments on in vivo tumors (RG2 cells) of mice. The tumor temperature was also observed while undergoing NIR irradiation. Further, the effects on the volume of the tumors and the mass of the mice were observed through different conditions of treatment.
Referring to FIG. 15A, which is a relative tumor volume vs. time graph of mice after treated by different conditions. The treating conditions were PBS+NIR irradiation, pure DOX+NIR irradiation, non-drug loaded carriers+NIR irradiation, and carriers loaded with DOX+NIR irradiation, and changes in the relative tumor volume along time of which are represented by lines 910, 920, 930, and 940, respectively. The relative tumor volume was observed after 24 hours later of the treatment, and used the tumor volume right after the treatment as a base. […] As for the treatments of the PBS+NIR irradiation, i.e. line 910, and the pure DOX+NIR irradiation, i.e. line 920, the tumor volumes were increased. […] The treatment of the PBS+NIR irradiation, i.e. line 910, could not treat the tumor because there was no drug being injected. The treatment of the pure DOX+NIR irradiation, i.e. line 920, was difficult to reach the tumor region to have the effect of therapy because the drug was not encapsulated in carriers. […]

[2] = Mass of mice after treatment; format: in vivo; settings: with NIR irradiation
Excerpt: Further, referring to FIG. 15B, which is a mass vs. time graph of mice after treated by different conditions. The treating conditions were PBS+NIR irradiation, pure DOX+NIR irradiation, non-drug loaded carriers+NIR irradiation, and carriers loaded with DOX+NIR irradiation, and changes in the mass of the mice along time of which are represented by lines 950, 960, 970, and 980, respectively.

[3] = tested on: RG2 cells; experiment: Toxicity tests for photothermal therapy in RG2 cells
Method: Toxicity tests for photothermal therapy: No carriers, non-drug loaded carriers, and drug carriers of the present invention with different DOX concentrations were independently incubated with RG2 cells in vitro for 1 hour, and irradiated by NIR for 5 minutes (808 nm, 2 W/cm^2). Then, the cells were stained by propidium iodide and observed by a confocal microscope, and the cell viabilities were calculated.
The conditions for bars 810, 820, and 830 were without using of DOX, and bars 810, 820, and 830 represents the cell viabilities of no carriers, which is as a control, carriers without the NIR irradiation, and carriers with the NIR irradiation, respectively. The conditions for bars 840, 850, and 860 were using of 0.25 μg/mL DOX, and bars 840, 850, and 860 represents the cell viabilities of pure DOX, which is as a control, carriers without the NIR irradiation, and carriers with the NIR irradiation, respectively. The conditions for bars 870, 880, and 890 were using of 0.05 μg/mL DOX, and bars 870, 880, and 890 represents the cell viabilities of pure DOX, which is as a control, carriers without the NIR irradiation, and carriers with the NIR irradiation, respectively. […] Bar 850 represents the drug carriers loaded with 0.25 μg/mL DOX, but not underwent the NIR irradiation after incubating with the cells. […] Bar 860 represents the drug carriers loaded with 0.25 μg/mL DOX, and underwent the NIR irradiation after incubating with the cells.

mass of mice over time [2]: no obvious difference in mass
Compound: COc1cccc2c1C(=O)c1c(O)c3c(c(O)c1C2=O)C[C@@](O)(C(=O)CO)C[C@@H]3O[C@H]1C[C@H](N)[C@H](O)[C@H](C)O1 [DOX, doxorubicin]
relative tumor volume [1]: increased
cell death ([3]; RG2 cells, pure DOX 0.25 μg/mL (bar 840)): about 50%
cell viability at 0.05 μg/mL DOX compared with 0.25 μg/mL ([3]; RG2 cells, without NIR irradiation (bars 870, 880)): increased
IC50 ([3]; Rattus norvegicus, RG2, read-out: half maximal inhibitory concentration (IC50)): ~0.25 µg/mL (≈ 0.46 µM)
